Legend:
[1] = Inhibition of hedgehog signaling pathway in mouse NIH/3T3 cells carrying stably transfected Gli-reporter construct by luciferase reporter assay; format: cell-based; conditions: NIH3T3
Mus musculus = species on record: Mus musculus; assay: Potency index, ratio of IC50 for Vismodegib to IC50 for test compound for inhibition of hedgehog signaling pathway in mouse NIH/3T3 cells carrying stably transfected Gli-reporter construct by luciferase reporter assay; format: cell-based
[2] = Clearance in Sprague-Dawley rat at 5 mg/kg, po formulated using 5% DMA + 5% Tween-80 measured during 2 mins to 24 hrs post dose by LC/MS/MS method; format: ADME, organism-based; conditions: in vivo
[3] = Cmax in Sprague-Dawley rat at 1 mg/kg, iv formulated using 5% DMA + 5% Tween-80 measured during 2 mins to 24 hrs post dose by LC/MS/MS method; format: ADME, organism-based; parameters: dose 1 mg/kg, route intravenous; conditions: in vivo
[4] = Mean residence time (0 to t) in Sprague-Dawley rat at 5 mg/kg, po formulated using 0.5% HPMC + 0.3% Tween-80 (pH = 2.8) measured during 2 mins to 24 hrs post dose by LC/MS/MS method; format: ADME, organism-based; conditions: in vivo
[5] = AUC (0 to t) in Sprague-Dawley rat at 5 mg/kg, po formulated using 5% DMA + 5% Tween-80 measured during 2 mins to 24 hrs post dose by LC/MS/MS method; format: ADME, organism-based; parameters: time upper 24 hr, time lower 0.033 hr, dose 5 mg/kg, route oral; conditions: in vivo
[6] = Clearance in Sprague-Dawley rat at 1 mg/kg, iv formulated using 5% DMA + 5% Tween-80 measured during 2 mins to 24 hrs post dose by LC/MS/MS method; format: ADME, organism-based; conditions: in vivo
[7] = Half life in Sprague-Dawley rat at 5 mg/kg, po formulated using 0.5% HPMC + 0.3% Tween-80 (pH = 2.8) measured during 2 mins to 24 hrs post dose by LC/MS/MS method; format: ADME, organism-based; conditions: in vivo
Rattus norvegicus [8] = assay: Apparent volume of distribution in Sprague-Dawley rat at 5 mg/kg, po formulated using 0.5% HPMC + 0.3% Tween-80 (pH = 2.8) measured during 2 mins to 24 hrs post dose by LC/MS/MS method; format: ADME, organism-based; conditions: in vivo, pH 2.8, 5 mg/kg
[9] = Cmax in Sprague-Dawley rat at 5 mg/kg, po formulated using 0.5% HPMC + 0.3% Tween-80 (pH = 2.8) measured during 2 mins to 24 hrs post dose by LC/MS/MS method; format: ADME, organism-based; parameters: dose 5 mg/kg, route oral; conditions: in vivo
[10] = Mean residence time (0 to t) in Sprague-Dawley rat at 1 mg/kg, iv formulated using 5% DMA + 5% Tween-80 measured during 2 mins to 24 hrs post dose by LC/MS/MS method; format: ADME, organism-based; conditions: in vivo
[11] = AUC (0 to t) in Sprague-Dawley rat at 1 mg/kg, iv formulated using 5% DMA + 5% Tween-80 measured during 2 mins to 24 hrs post dose by LC/MS/MS method; format: ADME, organism-based; parameters: dose 1 mg/kg, time 0.033-24 hr, route intravenous; conditions: in vivo
Rattus norvegicus [12] = assay: Apparent volume of distribution in Sprague-Dawley rat at 5 mg/kg, po formulated using 5% DMA + 5% Tween-80 measured during 2 mins to 24 hrs post dose by LC/MS/MS method; format: ADME, organism-based; conditions: in vivo
[13] = Half life in Sprague-Dawley rat at 5 mg/kg, po formulated using 5% DMA + 5% Tween-80 measured during 2 mins to 24 hrs post dose by LC/MS/MS method; format: ADME, organism-based; conditions: in vivo
[14] = Mean residence time (0 to t) in Sprague-Dawley rat at 5 mg/kg, po formulated using 5% DMA + 5% Tween-80 measured during 2 mins to 24 hrs post dose by LC/MS/MS method; format: ADME, organism-based; conditions: in vivo
[15] = AUC (0 to t) in Sprague-Dawley rat at 5 mg/kg, po formulated using 0.5% HPMC + 0.3% Tween-80 (pH = 2.8) measured during 2 mins to 24 hrs post dose by LC/MS/MS method; format: ADME, organism-based; parameters: time 0.033-24 hr, dose 5 mg/kg, route oral; conditions: in vivo
[16] = Half life in Sprague-Dawley rat at 1 mg/kg, iv formulated using 5% DMA + 5% Tween-80 measured during 2 mins to 24 hrs post dose by LC/MS/MS method; format: ADME, organism-based; conditions: in vivo
[17] = Apparent volume of distribution in Sprague-Dawley rat at 1 mg/kg, iv formulated using 5% DMA + 5% Tween-80 measured during 2 mins to 24 hrs post dose by LC/MS/MS method; format: ADME, organism-based; conditions: in vivo, read-out: Vz
[18] = Clearance in Sprague-Dawley rat at 5 mg/kg, po formulated using 0.5% HPMC + 0.3% Tween-80 (pH = 2.8) measured during 2 mins to 24 hrs post dose by LC/MS/MS method; format: ADME, organism-based; conditions: in vivo
[19] = Cmax in Sprague-Dawley rat at 5 mg/kg, po formulated using 5% DMA + 5% Tween-80 measured during 2 mins to 24 hrs post dose by LC/MS/MS method; format: ADME, organism-based; parameters: dose 5 mg/kg, route oral; conditions: in vivo

| Compound | IC50 [1] | Ratio IC50 (Mus musculus) | also measured |
| --- | --- | --- | --- |
| Cc1ccc(CN2CCOCC2)cc1NC(=O)c1ccc(Nc2ncc(C)c(-c3ccc(OC(F)(F)F)cc3)n2)c(F)c1 | 0.5 nM | 14 |  |
| Cc1ccc(CN2CCOCC2)cc1NC(=O)c1ccc(Nc2nccc(-c3cnn(C)c3)n2)c(F)c1 | 48.9 nM |  |  |
| Cc1ccc(CN2CCOCC2)cc1NC(=O)c1ccc(Nc2ncc(C)c(-c3ccccn3)n2)c(F)c1 | 1.15 nM |  |  |
| Cc1ccc(CN2CCCC2)cc1NC(=O)c1ccc(Nc2ncc(C)c(-c3ccc(OC(F)(F)F)cc3)n2)c(F)c1 | 2.03 nM |  |  |
| Cc1ccc(CN2CCCCC2)cc1NC(=O)c1ccc(Nc2ncc(C)c(-c3ccc(OC(F)(F)F)cc3)n2)c(F)c1 | 0.94 nM | > 8 |  |
| Cc1ccc(CN(C)C)cc1NC(=O)c1ccc(Nc2ncc(C)c(-c3ccc(OC(F)(F)F)cc3)n2)c(F)c1 | 0.78 nM | > 8 |  |
| Cc1ccc(CN2CCOCC2)cc1NC(=O)c1ccc(Nc2ncc(C)c(-c3ccccc3)n2)c(F)c1 | 0.05 nM | 150 |  |
| Cc1ccc(OCCN2CCOCC2)cc1NC(=O)c1ccc(Nc2ncc(C)c(-c3ccc(OC(F)(F)F)cc3)n2)c(F)c1 | 0.71 nM | > 8 |  |
| Cc1ccc(CN2CCN(C)CC2)cc1NC(=O)c1ccc(Nc2ncc(F)c(-c3ccc(OC(F)(F)F)cc3)n2)c(F)c1 | 5.67 nM |  |  |

The next lines start with results.

| IC50 [1] | Compound | Ratio IC50 (Mus musculus) | also measured |
| --- | --- | --- | --- |
| 1.02 nM | Cc1ccc(OCCCN2CCOCC2)cc1NC(=O)c1ccc(Nc2ncc(C)c(-c3ccc(OC(F)(F)F)cc3)n2)c(F)c1 |  |  |
| 0.9 nM | CCN(CC)Cc1ccc(C)c(NC(=O)c2ccc(Nc3ncc(C)c(-c4ccc(OC(F)(F)F)cc4)n3)c(F)c2)c1 | > 8 |  |
| 7.2 nM | CS(=O)(=O)c1ccc(C(=O)Nc2ccc(Cl)c(-c3ccccn3)c2)c(Cl)c1 [VISMODEGIB] |  |  |
| 0.93 nM | Cc1ccc(CN2CCN(C)CC2)cc1NC(=O)c1ccc(Nc2ncc(C)c(-c3ccc(OC(F)(F)F)cc3)n2)c(F)c1 | > 8 | CL/F [2]: 55.7 mL/min/kg; Cmax [3]: 225 ng/mL; MRT last [4]: 10.3 h; AUC(0-t) [5]: 956 ng·h/mL; clearance [6]: 32.2 mL/min/kg; half-life [7]: 11.7 h; Vz (Rattus norvegicus [8]): 69.4647 L/kg; Cmax [9]: 57.1 ng/mL; MRT last [10]: 7.93 h; AUC(0-t) [11]: 383 ng·h/mL; Vz (Rattus norvegicus [12]): 71.6877 L/kg; half-life [13]: 14.9 h; MRT last [14]: 10.7 h; AUC(0-t) [15]: 882 ng·h/mL; half-life [16]: 13.5 h; Vd [17]: 37.4 L/kg; CL/F [18]: 68.7 mL/min/kg; Cmax [19]: 62.4 ng/mL |
| 42.7 nM | Cc1ccc(CN2CCN(C)CC2)cc1NC(=O)c1ccc(Nc2ncc(F)c(-c3ccncc3)n2)c(F)c1 |  |  |
| 7.2 nM | Cc1ccc(CN2CCN(C)CC2)cc1NC(=O)c1ccc(Nc2nccc(-c3cccnc3)n2)c(F)c1 |  |  |
